Measured values from patent EP0138995B1, “REGULATION OF ENZYMES WHICH UTILIZE TETRAHYDROBIOPTERIN OR TETRAHYDROFOLATE COFACTORS WITH 6, 6-DISUBSTITUTED-TETRAHYDROPTERIDINES” (South Alabama Medical Science Foundation, priority 1983, dated 1984).
Where two headings read alike, the source gives them in different places.

How the values were obtained:
[1] = target: T1, Rat Liver Phenylalanine Hydroxylase (Rattus norvegicus, UniProt P04176); details: data from the literature (footnotes c, d), cited from earlier work
T1 construct: Cofactor for Rat Liver Phenylalanine Hydroxylase; from tissue; host or cells: rat liver
T1 sequence (P04176 1-453): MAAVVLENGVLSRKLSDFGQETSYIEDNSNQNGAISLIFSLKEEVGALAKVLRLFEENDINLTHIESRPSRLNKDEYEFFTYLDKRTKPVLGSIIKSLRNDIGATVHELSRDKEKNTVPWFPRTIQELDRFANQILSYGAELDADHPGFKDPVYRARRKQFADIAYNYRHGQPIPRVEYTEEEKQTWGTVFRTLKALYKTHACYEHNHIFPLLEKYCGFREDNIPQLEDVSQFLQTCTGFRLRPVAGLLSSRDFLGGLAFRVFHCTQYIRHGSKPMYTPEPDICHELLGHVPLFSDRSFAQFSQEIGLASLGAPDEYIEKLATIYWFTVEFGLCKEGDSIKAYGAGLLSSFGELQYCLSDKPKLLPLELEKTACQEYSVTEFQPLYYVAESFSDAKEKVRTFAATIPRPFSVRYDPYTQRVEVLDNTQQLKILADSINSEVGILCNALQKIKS

[2] = rats, 125 mg BH4/kg intravenously, cited from earlier work
[3] = cited from earlier work
[4] = cited from earlier work; remark: listed apart in the source
[5] = target: T2, Beef Liver Dihydropteridine Reductase (Bos taurus, UniProt Q3T0Z7); assay: Quinoid dihydropterin as substrate for dihydropteridine reductase (beef liver); assay type: biochemical; details: substrate produced by Peroxidase + H2O2
T2 construct: from tissue; host or cells: beef liver
T2 sequence (Q3T0Z7 1-242): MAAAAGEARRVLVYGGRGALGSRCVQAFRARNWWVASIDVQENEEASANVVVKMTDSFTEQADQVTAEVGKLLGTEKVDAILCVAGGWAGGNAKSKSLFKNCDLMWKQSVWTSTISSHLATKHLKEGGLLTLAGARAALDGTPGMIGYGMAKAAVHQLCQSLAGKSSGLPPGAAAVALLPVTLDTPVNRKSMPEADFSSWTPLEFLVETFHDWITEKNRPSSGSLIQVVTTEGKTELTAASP
Procedure: (§1) The quinoid was generated from 6,6-Me₂PH₄, as outlined previously. […] Peroxidase (6 units/ml final volume) was temperature equilibrated in 0.1 M Tris·HCl, pH 7.4, at 27° for 5 minutes. H₂O₂ (1.2 mM final concentration) was then added, followed by 6,6-Me₂PH₄. […] At 5 minutes, 6,6-Me₂PH₄ was introduced and monitored at 340 nm. […] Reaction was then initiated with dihydropteridine reductase (0.01 units/ml). Rates were calculated from the enzyme dependent decrease in O.D. at 340 nm, using an extinction coefficient of 9.8 for the chemically synthesized substrate and 6.2 for the peroxidase- and phenylalanine-hydroxylase-containing reactions in which the pterin is maintained in the quinoid form.

[6] = target: T3, Sheep Liver Dihydropteridine Reductase (Ovis aries, UniProt A0ACI6QPJ5); assay: Quinoid dihydropterin as substrate for dihydropteridine reductase (sheep liver); assay type: biochemical; details: substrate produced by Peroxidase + H2O2
T3 sequence (A0ACI6QPJ5 46-254): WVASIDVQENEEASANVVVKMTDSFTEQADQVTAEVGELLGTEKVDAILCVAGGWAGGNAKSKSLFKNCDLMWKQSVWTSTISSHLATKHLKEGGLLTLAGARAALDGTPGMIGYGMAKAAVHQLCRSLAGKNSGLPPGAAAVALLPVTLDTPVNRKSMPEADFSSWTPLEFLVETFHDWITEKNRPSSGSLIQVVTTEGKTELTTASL
Procedure: as §1, with “6,6-Me₂PH₄. Conversion to q-6,6-Me₂PH₂, monitored at 340 nm, was complete within a few seconds. • (iii) Generation by phenylalanine hydroxylase:” for “6,6-Me₂PH₄.”, “nm. Conversion of 6,6-Me₂PH₄ to quinoid dihydropterin was complete in 1-7 minutes, depending on the concentration.” for “nm.”, “form. […] This Km was obtained regardless of the method of generation of the quinoid dihydropterin. The Vmax's were also the same for the dihydropteridine reductase catalyzed reduction of quinoid generated by any of the three methods (Table VI). Thus, the quinoid products of each procedure appear to behave equally.” for “form.”

[7] = target: T1, Rat Liver Phenylalanine Hydroxylase; assay: Phenylalanine hydroxylase cofactor assay (cofactor consumption and tyrosine formation); assay type: biochemical; details: for Relative Vmax: relative to l-BH4 = 1.0; for 6,6-Me2PH4 oxidized: 2-3 minutes, no regenerating system; for 6,6-Me2PH4 tyrosine: ratio cofactor oxidized to tyrosine produced
Procedure: The 6,6-dimethyl substituted tetrahydropterin was tested for cofactor activity in a standard phenylalanine hydroxylase assay in which both cofactor consumption and tyrosine formation were monitored. […] An apparent Michaelis constant was determined at 1 mM phenylalanine and atmospheric oxygen with concentrations of 6,6-Me₂PH₄ ranging from 0.02-0.3 mM. The effect of a second methyl at the 6-position slightly increases the affinity for phenylalanine hydroxylase, since the apparent Km was two-thirds to three-quarters that of 6-methyl and 6,7-dimethyltetrahydropterin (Table IV). […] The maximum velocity of the reaction with 6,6-Me₂PH₄ is similar to that with the 6,7-dimethyl compound and about 6 times slower than with the natural cofactor (Table IV).

[8] = cited from earlier work; for concentration: read-out: blood level
[9] = cited from earlier work; remark: listed apart in the source
[10] = target: T4, phenylalanine hydroxylase (Rattus norvegicus, UniProt P04176); assay: Inhibition of phenylalanine hydroxylase by dihydropterins; assay type: biochemical; details: competitive inhibition; 6-MePH4 as cofactor 0.05 mM to 0.3 mM; read-out: apparent Ki
T4 construct: from tissue
T4 sequence (P04176 1-453): T1 sequence (P04176 1-453)
Procedure: Measurements were made under standard assay conditions with cofactor concentration varied between 0.05 and 0.3 mM. Stock solutions of 6,6-Me₂PH₂ were in 0.1 M assay buffer.
Standard assay conditions, with 6-MePH₄ as cofactor over a range of 0.05 mM to 0.3 mM, were employed.

[11] = Rate of air oxidation of 6,6-Me2PH4; assay type: physicochemical; details: 0.1 M Tris·HCl, pH 7.4 at 27°
Procedure: Stability. The rate of air oxidation of 6,6-Me₂PH₄ was measured in 0.1 M Tris·HCl, pH 7.4 at 27°, i.e., enzyme assay conditions. […] This is similar to the constant previously determined for 6,7-Me₂PH₄.

[12] = Preliminary in vivo testing: brain concentration after intraperitoneal injection; details: mice, intraperitoneally, 0.1 µmole/g body weight
Procedure: Preliminary in vivo testing of 6,6-disubstituted pteridines has been conducted. 6,6-Dimethyltetrahydropterin was injected intraperitoneally into mice at a dose rate of 0.1 µmole/g body weight. Maximum brain concentration was reached about one hour after injection and was more than 30 times higher than the maximum level reached by tetrahydrobiopterin injected in a similar manner.

[13] = 0.2 mM cofactor, l-BH4: sigmoidal curve, Hill coefficient = 2, read-out: Km' for Phenylalanine
[14] = 1 mM phenylalanine, atmospheric oxygen, 0.1 M Tris·HCl, pH 7.4, 27°C, read-out: Km' for Cofactor

## C[C@H](O)[C@H](O)[C@H]1CNc2nc(N)[nH]c(=O)c2N1 [l-BH4, tetrahydrobiopterin]
[1]; [13]
  Km: 170 µM
[1]; [14]
  Km: 21 ± 3 µM
[2]; in 15 mins
  maximum increase of BH4 in the striatum: 30%
[2]
  striatal increase as share of the concentration administered assuming uniform body distribution: 0.2%
  time of return of striatal BH4 to normal: less than 2 hours
[3]; 2 mg BH4 (i.v.)/kg/day for 3 days, 1 day after the last injection, BH4-synthesis-deficient child
  increase in CSF BH4: no increase
[3]; 2.5 hours after oral treatment, in two equal doses, from 2 ng before
  CSF BH4: 44 ng/mL
[3]; 2.5 hours after oral treatment
  CSF BH4 as share of that expected assuming uniform body distribution and retention: 0.22%

## C[C@H](O)C(=O)C1=Nc2c(nc(N)[nH]c2=O)NC1 [sepiapterin]
[4]; orally 0.6 mg-1.25 mg/kg
  time normal levels of phenylalanine were maintained: 24 h
[3]; 2.75 mg (p.o.)/kg, one patient
  effect on neurological symptoms: shown to have an effect

## CC1(c2ccccc2)CNC2=NC(N)=NC(=O)C2=N1 (stereo not shown) [Compound 6-Ph-6-MePH2, 2-Amino-4-hydroxy-6-methyl-6-phenyl-quinoid-dihydro-pteridine]
[5]
  Relative Vmax Beef: 0.6

## CC1N=C2C(=O)N=C(N)N=C2NC1C (stereo not shown) [6,7-Me2PH2]
[6]
  Relative Vmax Sheep: 2

## CC1CNc2nc(N)[nH]c(=O)c2N1 (stereo not shown) [Compound 6-MePH4, 6-methyltetrahydropterin]
[7]
  Relative Vmax: 0.77
[8]; 2 hrs after injection, Kapatos and Kaufman
  share of striatal 6-MePH4 remaining in the fully reduced tetrahydro-form: over 85%
[8]; Curtius et al.
  share of 6-MePH4 in the brain in the reduced form: 30%
[8]; rats, 0.11 µmole (i.p.)/gm body weight
  efficiency of entry into the brain, times that of an equal dose of BH4: up to 10
[8]; rats, 0.11 µmole (i.p.)/gm, at 30 minutes, maintained until 2 hours
  brain level: 2 nmoles/g brain
[8]; rats, 0.11 µmole (i.p.)/gm
  brain level as share of that expected assuming equal body distribution: 2%
[8]; rats, i.p., at 30 minutes
  concentration: 40 µM
[8]; rats, i.p., by 2 hrs
  concentration: 10 µM
[8]; rats, i.p.
  half life for retention by the brain: 3 h
  half life for retention by the plasma: 42 min
[9]; at 9.5 hours after intravenous injection of 20 mg/kg
  CSF level: 0.06 µg/mL
[9]; three hours after intravenous injection of 20 mg/kg, 180 min
  CSF level: 0.45 µg/mL
[9]; three hours after intravenous injection of 20 mg/kg
  CSF level as share of that expected on the basis of equal body distribution: 2.2%
[9]; two hours after 8 mg/kg, from 6 before, normal = 30
  CSF 5-hydroxyindoleacetic acid: 18 ng/mL
[9]; two hours after 8 mg/kg, from 9 before, normal 132
  CSF homovanillic acid: 22 ng/mL

## C[C@H](O)[C@H](O)C1=Nc2c(nc(N)[nH]c2=O)NC1 [7,8-dihydrobiopterin, reference compound]
[10]
  Ki: 50 µM

## CC1(C)CNc2nc(N)[nH]c(=O)c2N1 [6,6-Me2PH4, 6,6-Dimethyltetrahydropterin]
[11]
  half-life: 23 min
  pseudo first order rate constant of air oxidation: 0.03 min⁻¹
[7]
  coupling of the reaction (tyrosine formed per cofactor molecule consumed): completely coupled reaction
  maximum velocity, times slower than with the natural cofactor: about 6
  Relative Vmax: 0.17
[7]; Initial [6,6-Me2PH4] 0.01 mM
  Tyrosine produced: 4.27 nmol
  6,6-Me2PH4 oxidized: 4.4 nmol
  6,6-Me2PH4 tyrosine: 1.03
[7]; Initial [6,6-Me2PH4] 0.03 mM
  Tyrosine produced: 9.77 nmol
  6,6-Me2PH4 oxidized: 9.1 nmol
  6,6-Me2PH4 tyrosine: 0.93
[7]; Initial [6,6-Me2PH4] 0.06 mM
  Tyrosine produced: 12.57 nmol
  6,6-Me2PH4 oxidized: 11.76 nmol
  6,6-Me2PH4 tyrosine: 0.94
[7]; Initial [6,6-Me2PH4] 0.1 mM
  Tyrosine produced: 19.25 nmol
  6,6-Me2PH4 oxidized: 21.18 nmol
  6,6-Me2PH4 tyrosine: 1.10
[12]
  maximum brain concentration, times higher than the maximum level reached by tetrahydrobiopterin: more than 30
  time after injection at which maximum brain concentration was reached: about one

## CC(O)C(O)C1=Nc2c(nc(N)[nH]c2=O)NC1 (stereo not shown) [Dihydrobiopterin]
[4]; orally 2.5 mg/kg
  time normal levels of phenylalanine were maintained: 24 h

## quinoid dihydrobiopterin [dihydro-biopterin (natural isomer), reference compound]
[5]
  Km: 0.004 mM
  Relative Vmax Beef: 0.5
[6]
  Km: 0.004 mM
  Relative Vmax Sheep: 0.5

## CC1Nc2nc(N)[nH]c(=O)c2NC1C (stereo not shown) [6,7-Me2PH4, 6,7-dimethyltetrahydropterin]
[1]; [13]
  Km: 800 ± 100 µM
[1]; [14]
  Km: 90 ± 10 µM
[1]; relative to l-BH4 = 1.0
  Relative Vmax: 0.17
